Assay results: US7453000B2, “Substituted oxazolobenzoisothiazole dioxide derivatives method for production and use thereof” (Sanofi-Aventis Deutschland GmbH, priority 2004, dated 2008)
pIC50: −log10 of the molar value.

biological target: T1, human PTP1B (Homo sapiens, UniProt P18031); experiment: Enzymatic test system for detecting inhibition of a phosphatase (recombinant hPTP1B; phosphopeptide dephosphorylation / p-nitrophenyl phosphate cleavage); assay type: biochemical; conditions: inhibition of recombinant hPTP1B (1-299 aa, expressed in Sf9 cells); Table 2 does not say which substrate procedure (A phosphopeptide or B pNPP)
T1 construct: without the carboxy-terminal hydrophobic region (corresponding to 1-299 aa); made in house; host or cells: Sf9 insect cells (Spodoptera frugiperda), baculovirus (Bac-to-Bac, pFASTBAC)
T1 sequence (P18031 1-299): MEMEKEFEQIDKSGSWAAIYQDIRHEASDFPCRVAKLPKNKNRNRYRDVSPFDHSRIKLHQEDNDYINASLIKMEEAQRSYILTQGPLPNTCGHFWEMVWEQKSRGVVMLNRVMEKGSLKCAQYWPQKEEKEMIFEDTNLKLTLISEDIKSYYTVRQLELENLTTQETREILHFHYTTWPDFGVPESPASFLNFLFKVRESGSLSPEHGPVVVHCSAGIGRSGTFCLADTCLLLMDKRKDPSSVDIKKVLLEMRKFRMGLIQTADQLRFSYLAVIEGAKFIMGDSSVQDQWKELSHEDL
Method: The activity of the compounds was tested as follows:
Enzymatic test systems for detecting inhibition of a phosphatase
The compounds of the formula I were tested for their phosphatase-inhibiting effect in an in vitro assay. The enzyme preparation and the performance of the assay was carried out as follows.
Obtaining the Enzyme Preparation:
• Sf9 cells (=Spodoptera frugiperda cell type; obtainable from invitrogen) are cultured in Grace's supplemented medium (Gibco-BRL) with 10% heat-inactivated fetal calf serum (Gibco-BRL) in spinner flasks at 28° C. in accordance with the protocol of Summers and Smith (A Manual for Methods for Baculoviruns Vectors and Insect Culture Procedures [Bulletin No. 15555]. Texas A & M University, Texas Agricultural Experiment Station, College Station, Tex., 1987). • Construction of recombinant Baculovirus transfer vectors: cDNA coding for the regulatory and catalytic domains of human PTP1B, but without the carboxy-terminal hydrophobic region (corresponding to 1-299 aa) was obtained by polymerase chain reaction via primers with attached cloning sites and suitable cDNA templates (obtainable for example from invitrogen) and then cloned into baculovirus expression vectors (Amersham Pharmacia Biotech.). The recombinant baculoviruses were prepared with the aid of the Bac-to-Bac baculovirus expression system (obtainable from Gibco-BRL). The gene was cloned into the pFASTBAC donor plasmid (obtainable from Life Technologies). The resulting plasmid was transformed into competent DH10BAC Escherichia coli cells (obtainable from Life Technologies). After transposition and antibiotic selection, the recombinant plasmid DNA was isolated from selected E. coli colonies and then used for the transfection of Sf9 insect cells. The virus particle in the supernatant medium was amplified three times up to a viral stock volume of 500 ml. B) Production of Recombinant Protein: • Baculovirus infection of a 500 ml spinner culture of Sf9 cells was essentially carried out as described by Summers and Smith (see above). Sf9 cells at a density of 1-3×10^6 cells/ml were pelleted by centrifugation at 300 g for 5 min, the supernatant was removed, and the cells were resuspended in a density of 1×10^7 cells/ml in a suitable recombinant viral stock (MOI 10). After careful shaking at room temperature for 1.5 h, fresh medium was added in order to achieve a cell density of 1×10^6 cells/ml. The cells were then cultured in suspension at 28° C. for suitable periods after postinfection. C) Cellular Fractionation and Complete Cell Extracts of Infected Sf9 Cells: • After the postinfection, aliquots were subjected to an analysis of protein expression by SDS-PAGE and Western blot analysis. The cellular fractionation was carried out as described (Cromlish, W. and Kennedy, B. Biochem. Pharmacol. 52: 1777-1785, 1996). Complete cell extracts were obtained from 1 ml aliquots of the infected Sf9 cells after certain times postinfection. The pelleted cells (300×g, 5 min) were washed once in phosphate-buffered saline (4° C.), resuspended in 50 μl of water and disrupted by repeated freezing/thawing. Protein concentrations were determined with the aid of the Bradford method and bovine serum albumin as standard. Assay Procedure: A) Dephosphorylation of a Phosphopeptide: • This assay is based on the release of phosphate from a consensus substrate peptide which is detected in the nanomolar concentration range by the malachite green/ammonium molybdate method (Lanzefta, P. A., Alvarez, L. J., Reinach, P. S., Candia, O. A. Anal Biochem. 100: 95-97, 1979) adapted for the microtiter plate format. The dodecatrisphosphopeptide TRDIYETDYYRK (Biotrend, Cologne) corresponds to amino acids 1142-1153 of the catalytic domain of the insulin receptor and is (auto)phosphorylated on tyrosine residues 1146, 1150 and 1151. […]

Compared with `N#Cc1cccc(-c2cnc(Nc3ccc4c(c3)CS(=O)(=O)N4)o2)c1` [Example 1], `O=S1(=O)Cc2cc(Nc3ncc(-c4cccc(Br)c4)o3)ccc2N1` [Example 2] is 0.24 log units lower in pIC50: 5.14 for the first, 4.90 for the second. The first is the more potent here.

First: O=S1(=O)Cc2cc(Nc3ncc(-c4ccc(C(F)(F)F)cc4)o3)ccc2N1 [Example 3]
Second: O=C(O)COc1ccc(-c2cnc(Nc3ccc4c(c3)CS(=O)(=O)N4)o2)cc1 [Example 8]
The pIC50 of the first is 1.26 log units higher: 4.80 for the first, 3.54 for the second.

First: CC(C)(C)c1cc(-c2cnc(Nc3ccc4c(c3)CS(=O)(=O)N4)o2)cc(C(C)(C)C)c1O [Example 4]
Second: O=C(O)c1cc(-c2cnc(Nc3ccc4c(c3)CS(=O)(=O)N4)o2)ccc1O [Example 7]
The pIC50 of the first is 1.42 log units higher: 5.21 for the first, 3.79 for the second.

Compared with `O=S1(=O)Cc2cc(Nc3ncc(-c4ccc(-c5ccc(Cl)cc5)cc4)o3)ccc2N1` [Example 5], `O=S1(=O)Cc2cc(Nc3ncc(-c4ccc(Br)s4)o3)ccc2N1` [Example 6] is 0.64 log units lower in pIC50: 5.67 for the first, 5.03 for the second. The first is the more potent here.
